# Legend:
# [1] = target: PRMT5-MEP50 (Homo sapiens, UniProt O14744); experiment: PRMT5 assay (3H-SAM flashplate); details: Table 4; PRMT5 biochemical assay
# In short: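 Radiometric methyl-transfer read-out: 3H-methyl transferred to a 3′-biotinylated, acetylated H4 peptide substrate (100 nM) from 3H-SAM (250 nM), captured on streptavidin scintillation plates. Enzyme complex 2.5 nM, pH 8.0 Tris buffer with DTT and Tween, compound preincubation 5 min, 60 min reaction stopped with excess unlabeled SAM.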
# [2] = target: METTL3/METTL14 (Homo sapiens, UniProt Q86U44); experiment: METTL3-14 standard enzyme assay (3H-SAM flashplate); details: Table 4; METTL3 biochemical assay
# In short: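 Radiometric methyltransferase read-out: after quenching with excess unlabelled SAM (15 μM), biotinylated RNA was captured on streptavidin flashplates (2 h, 25° C) and counted. Reactions contained 2.5 nM enzyme (5 min preincubation), 100 nM RNA and 100 nM 3H-SAM, ran 30 min in HEPES pH 7.5 buffer with KCl, MgCl2, DTT.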
# [3] = target: T1, FLT3 (Homo sapiens, UniProt P36888); experiment: FLT3 LanthaScreen assay; type: biochemical; details: Table 4
# T1 sequence (P36888 27-993): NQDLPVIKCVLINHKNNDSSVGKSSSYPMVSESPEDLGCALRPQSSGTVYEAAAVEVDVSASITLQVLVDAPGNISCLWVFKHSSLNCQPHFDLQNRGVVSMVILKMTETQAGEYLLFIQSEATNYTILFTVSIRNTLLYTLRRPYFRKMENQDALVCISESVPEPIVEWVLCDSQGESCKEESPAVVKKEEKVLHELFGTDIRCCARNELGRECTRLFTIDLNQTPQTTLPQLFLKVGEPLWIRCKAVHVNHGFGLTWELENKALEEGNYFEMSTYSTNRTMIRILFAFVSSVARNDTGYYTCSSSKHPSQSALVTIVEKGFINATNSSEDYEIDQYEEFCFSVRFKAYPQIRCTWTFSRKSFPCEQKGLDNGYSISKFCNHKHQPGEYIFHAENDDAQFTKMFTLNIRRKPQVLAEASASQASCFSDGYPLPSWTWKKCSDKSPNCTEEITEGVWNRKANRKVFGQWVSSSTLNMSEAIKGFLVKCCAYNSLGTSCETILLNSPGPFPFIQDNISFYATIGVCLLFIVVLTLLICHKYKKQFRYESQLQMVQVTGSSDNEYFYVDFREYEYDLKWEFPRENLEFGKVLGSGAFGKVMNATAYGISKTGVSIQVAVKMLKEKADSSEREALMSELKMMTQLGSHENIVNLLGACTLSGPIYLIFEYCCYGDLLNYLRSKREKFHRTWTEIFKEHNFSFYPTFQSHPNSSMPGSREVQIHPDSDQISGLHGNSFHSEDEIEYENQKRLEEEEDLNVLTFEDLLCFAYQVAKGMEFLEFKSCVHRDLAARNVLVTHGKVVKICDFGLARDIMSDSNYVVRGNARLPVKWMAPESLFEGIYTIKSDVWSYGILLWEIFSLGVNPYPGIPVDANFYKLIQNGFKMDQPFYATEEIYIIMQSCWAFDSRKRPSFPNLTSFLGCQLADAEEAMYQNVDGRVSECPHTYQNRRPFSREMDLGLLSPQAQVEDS
# Experimental: (§1) FLT3/FLT3-ITD LanthaScreen Assays
# (§2) Assays were performed in a 10 μl-volume in 384-well polypropylene microplates (Perkin Elmer Proxiplate, cat. No. 6059480) at ambient temperature. Optimized 1× assay buffer was 50 mM Hepes pH 7.5, 2 mM DTT, 0.01% Tween, 0.01% BSA, 10 mM MgCl2. For compound screening FLT3 (final concentration, f.c.=[…]) or FLT3-ITD (f.c.=[…]) was added using a Multidrop Combi (ThermoFisher Scientific, Waltham, MA) and preincubated for 10 min. Reactions were started by adding fluorescein-poly GT (f.c.=200 nM) and ATP (f.c.=57 μM) substrates. Reactions proceeded for 40 minutes. The reactions were stopped with a detection mixture of EDTA (f.c.=20 mM) and terbium-conjugated anti-phoso tyrosine antibody pY20 (f.c.=2 nM). The plates were sealed and read on an Envision (PerkinElmer, Waltham, MA) using 340 nm excitation and emission reads at 495 and 520 nM.
# [4] = target: T2, FLT3-ITD (Homo sapiens, UniProt P36888); experiment: FLT3-ITD LanthaScreen assay; type: biochemical; details: Table 4
# T2 sequence (P36888 1-993): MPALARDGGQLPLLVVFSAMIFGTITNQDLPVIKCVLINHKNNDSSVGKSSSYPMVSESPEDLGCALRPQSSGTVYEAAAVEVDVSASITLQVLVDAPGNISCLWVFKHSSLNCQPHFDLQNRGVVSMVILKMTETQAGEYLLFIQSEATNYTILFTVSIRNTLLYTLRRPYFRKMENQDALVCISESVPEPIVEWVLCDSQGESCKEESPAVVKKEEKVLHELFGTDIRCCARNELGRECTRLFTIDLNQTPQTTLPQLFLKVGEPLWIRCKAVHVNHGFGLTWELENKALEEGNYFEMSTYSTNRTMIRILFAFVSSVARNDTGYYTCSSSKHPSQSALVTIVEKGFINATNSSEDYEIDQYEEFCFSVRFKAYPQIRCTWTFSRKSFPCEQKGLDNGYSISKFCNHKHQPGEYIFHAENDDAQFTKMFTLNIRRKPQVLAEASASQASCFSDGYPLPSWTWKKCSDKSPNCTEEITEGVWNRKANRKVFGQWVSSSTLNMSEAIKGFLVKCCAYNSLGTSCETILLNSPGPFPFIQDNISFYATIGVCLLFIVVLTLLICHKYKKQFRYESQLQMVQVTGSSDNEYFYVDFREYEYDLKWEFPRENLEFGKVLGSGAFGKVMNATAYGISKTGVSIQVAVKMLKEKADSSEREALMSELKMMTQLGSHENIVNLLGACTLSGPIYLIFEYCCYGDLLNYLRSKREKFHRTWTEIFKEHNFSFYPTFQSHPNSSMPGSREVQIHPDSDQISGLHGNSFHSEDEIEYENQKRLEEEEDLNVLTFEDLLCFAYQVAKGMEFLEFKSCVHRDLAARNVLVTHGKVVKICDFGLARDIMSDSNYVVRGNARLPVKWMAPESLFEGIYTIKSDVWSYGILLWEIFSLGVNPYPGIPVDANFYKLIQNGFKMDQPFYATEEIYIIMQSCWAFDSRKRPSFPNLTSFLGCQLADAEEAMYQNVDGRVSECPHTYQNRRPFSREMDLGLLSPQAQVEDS
# Experimental: as §1, §2
# [5] = target: T1, FLT3; experiment: FLT3 Caliper assay; type: biochemical; details: Table 4; read-out: FLT3 Calipher assay IC50
# Experimental: (§3) FLT3/FLT3-ITD Caliper Assays
# (§4) Assays were performed in a 20 μl-volume in 384-well polypropylene microplates (Perkin Elmer Proxiplate, cat. No. 6059480) at ambient temperature. Optimized 1× assay buffer was 50 mM Hepes pH 7.5, 2 mM DTT, 0.01% Tween, 0.01% BSA, 10 mM MgCl2. For compound screening FLT3 (final concentration, f.c.=0.9 nM) or FLT3-ITD (f.c.=7 nM) was added using a Multidrop Combi (ThermoFisher Scientific, Waltham, MA) and preincubated for 10 min. Reactions were started by adding fluorescein-peptide (sequence 5-FAM-EAIYAAPFAKKK-CONH2) (f.c.=300 μM) and ATP (FLT3 f.c.=97 μM FLT3-ITD f.c.=146 μM) substrates. Reactions proceeded for 60 minutes. The reactions were stopped with LabChip ProfilerPro Separation Buffer containing EDTA (f.c.=20 mM). The plates were read on a Caliper microfluidics reader (PerkinElmer, Waltham, MA).
# [6] = target: T2, FLT3-ITD; experiment: FLT3-ITD Caliper assay; type: biochemical; details: Table 4; read-out: FLT3-ITD Calipher assay IC50
# Experimental: as §3, §4
# Chain of PRMT5-MEP50 (O14744 whole entry): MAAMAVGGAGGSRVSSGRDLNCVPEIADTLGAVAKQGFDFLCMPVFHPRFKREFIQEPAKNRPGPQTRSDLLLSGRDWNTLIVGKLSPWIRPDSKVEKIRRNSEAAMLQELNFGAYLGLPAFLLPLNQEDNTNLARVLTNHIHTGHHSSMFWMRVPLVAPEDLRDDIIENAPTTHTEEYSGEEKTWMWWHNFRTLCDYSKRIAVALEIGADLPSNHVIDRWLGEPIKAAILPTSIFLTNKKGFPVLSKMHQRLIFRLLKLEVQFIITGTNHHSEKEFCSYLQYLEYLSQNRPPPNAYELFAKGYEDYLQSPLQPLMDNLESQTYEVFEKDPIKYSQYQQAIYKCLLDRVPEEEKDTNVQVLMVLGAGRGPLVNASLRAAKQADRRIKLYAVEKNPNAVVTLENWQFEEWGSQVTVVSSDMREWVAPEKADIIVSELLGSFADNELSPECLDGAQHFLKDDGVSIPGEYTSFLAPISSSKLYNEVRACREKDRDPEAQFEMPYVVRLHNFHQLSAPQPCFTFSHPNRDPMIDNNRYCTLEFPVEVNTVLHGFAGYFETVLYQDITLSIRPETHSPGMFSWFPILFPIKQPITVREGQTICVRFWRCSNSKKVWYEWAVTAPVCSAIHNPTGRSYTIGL
# Chain of PRMT5-MEP50 (Q9BQA1 whole entry partner): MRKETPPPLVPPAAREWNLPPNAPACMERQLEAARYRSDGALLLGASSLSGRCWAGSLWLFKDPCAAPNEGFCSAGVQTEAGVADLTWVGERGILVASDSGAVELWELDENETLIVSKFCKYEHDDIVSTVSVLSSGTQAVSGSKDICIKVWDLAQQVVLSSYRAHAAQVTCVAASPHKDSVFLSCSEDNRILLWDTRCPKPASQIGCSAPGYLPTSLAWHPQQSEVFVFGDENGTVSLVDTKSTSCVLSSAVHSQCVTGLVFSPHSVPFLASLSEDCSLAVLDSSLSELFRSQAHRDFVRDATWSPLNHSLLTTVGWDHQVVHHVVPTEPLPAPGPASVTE
# Chain of METTL3/METTL14 (Q86U44 whole entry, species assumed): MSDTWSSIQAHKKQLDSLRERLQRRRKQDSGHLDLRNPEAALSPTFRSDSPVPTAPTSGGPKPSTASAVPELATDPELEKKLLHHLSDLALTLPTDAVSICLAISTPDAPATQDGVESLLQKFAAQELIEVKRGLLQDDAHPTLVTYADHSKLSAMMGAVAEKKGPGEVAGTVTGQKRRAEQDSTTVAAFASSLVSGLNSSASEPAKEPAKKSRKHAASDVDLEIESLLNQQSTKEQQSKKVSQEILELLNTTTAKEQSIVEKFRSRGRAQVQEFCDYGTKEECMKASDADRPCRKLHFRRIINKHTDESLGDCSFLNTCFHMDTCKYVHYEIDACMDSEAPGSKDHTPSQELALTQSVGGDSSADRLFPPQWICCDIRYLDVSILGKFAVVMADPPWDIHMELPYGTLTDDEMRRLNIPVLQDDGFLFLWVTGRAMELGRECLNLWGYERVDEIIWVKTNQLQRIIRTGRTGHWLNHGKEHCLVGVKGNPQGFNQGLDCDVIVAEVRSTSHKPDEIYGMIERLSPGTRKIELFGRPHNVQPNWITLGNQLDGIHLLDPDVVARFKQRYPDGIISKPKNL
# Chain of METTL3/METTL14 (Q9HCE5 whole entry partner, species assumed): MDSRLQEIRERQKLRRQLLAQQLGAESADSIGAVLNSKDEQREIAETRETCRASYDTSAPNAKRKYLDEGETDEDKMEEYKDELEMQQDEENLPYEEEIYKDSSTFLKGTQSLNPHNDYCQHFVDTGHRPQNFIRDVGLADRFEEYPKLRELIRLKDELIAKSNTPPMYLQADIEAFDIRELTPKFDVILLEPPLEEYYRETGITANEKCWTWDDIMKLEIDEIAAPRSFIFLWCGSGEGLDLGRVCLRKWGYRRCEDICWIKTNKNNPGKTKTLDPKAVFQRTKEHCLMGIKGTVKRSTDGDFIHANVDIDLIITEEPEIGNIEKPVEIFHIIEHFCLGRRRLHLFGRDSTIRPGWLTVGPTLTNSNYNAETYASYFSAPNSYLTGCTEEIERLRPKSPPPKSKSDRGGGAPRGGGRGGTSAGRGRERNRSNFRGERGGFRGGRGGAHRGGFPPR
SMILES,IC50 [1] [nM],IC50 [2] [nM],IC50 [3] [nM],IC50 [4] [nM],IC50 [5] [nM],IC50 [6] [nM]
CN1CCC(NC(=O)[C@H]2O[C@@H](n3cc(-c4ccn(C)n4)c4c(N)ncnc43)[C@H](O)[C@@H]2O)CC1=O (stereo partly shown) [Compound I-186],≥ 1000,≥ 1000,≥ 1000,≥ 1000,,
CC1CC(NC(=O)[C@H]2O[C@@H](n3cc(-c4ccn(C)n4)c4c(N)ncnc43)[C@H](O)[C@@H]2O)CCN1 (stereo in doubt) [Compound I-211],100 to 1000,100 to 1000,≥ 1000,≥ 1000,,
CNC(=O)Nc1cc(NC(=O)[C@H]2O[C@@H](n3cc(-c4ccn(C)n4)c4c(N)ncnc43)[C@H](O)[C@@H]2O)ccn1 [Compound I-143],10 to 100,100 to 1000,≥ 1000,≥ 1000,,
CNc1ccc2ccc(NC(=O)[C@H]3O[C@@H](n4cc(-c5ccn(C)n5)c5c(N)ncnc54)C[C@@H]3O)cc2n1 [Compound I-35],10 to 100,< 10,≥ 1000,≥ 1000,,
"CN1CCC[C@@H](NC(=O)[C@H]2O[C@@H](n3cc(-c4ccn(C)n4)c4c(N)ncnc43)[C@H](O)[C@@H]2O)C1 [Compound I-46, (2S,3S,4R,5R)-5-[4-amino-5-(1-methyl-1H-pyrazol-3-yl)-7H-pyrrolo[2,3-d]pyrimidin-7-yl]-3,4-dihydroxy-N-[(3R)-1-methylpiperidin-3-yl]oxolane-2-carboxamide]",10 to 100,≥ 1000,≥ 1000,≥ 1000,,
Cn1ccc(-c2cn([C@@H]3O[C@H](C(=O)NC4CCN(CCO)CC4)[C@@H](O)[C@H]3O)c3ncnc(N)c23)n1 [Compound I-178],10 to 100,100 to 1000,≥ 1000,≥ 1000,,
CC(O)CCN(C(=O)[C@H]1O[C@@H](n2cc(-c3ccn(C)n3)c3c(N)ncnc32)[C@H](O)[C@@H]1O)C1CCN(C)CC1 (stereo partly shown) [Compound I-148],10 to 100,≥ 1000,≥ 1000,≥ 1000,,
CN1CC[C@H](NC(=O)[C@H]2O[C@@H](n3cc(-c4ccn(C)n4)c4c(N)ncnc43)[C@H](O)[C@@H]2O)C1 [Compound I-203],10 to 100,100 to 1000,≥ 1000,≥ 1000,,
"CN1CCC(NC(=O)[C@H]2C[C@@H](n3cc(-c4ccn(C)n4)c4c(N)ncnc43)[C@H](O)[C@@H]2O)CC1 [Compound I-44, (1S,2R,3S,4R)-4-[4-amino-5-(1-methyl-1H-pyrazol-3-yl)-7H-pyrrolo[2,3-d]pyrimidin-7-yl]-2,3-dihydroxy-N-(1-methylpiperidin-4-yl)cyclopentane-1-carboxamide]",10 to 100,100 to 1000,≥ 1000,≥ 1000,,
CC1CC(NC(=O)[C@H]2O[C@@H](n3cc(-c4ccn(C)n4)c4c(N)ncnc43)[C@H](O)[C@@H]2O)CCN1C (stereo in doubt) [Compound I-231],100 to 1000,100 to 1000,≥ 1000,≥ 1000,,
CN1[C@@H]2CC[C@H]1C[C@@H](NC(=O)[C@H]1O[C@@H](n3cc(-c4ccn(C)n4)c4c(N)ncnc43)[C@H](O)[C@@H]1O)C2 [Compound I-187],10 to 100,100 to 1000,≥ 1000,≥ 1000,,
"CN1CCC(NC(=O)[C@H]2O[C@@H](n3cc(C4CCCO4)c4c(N)ncnc43)[C@H](O)[C@@H]2O)CC1 (stereo partly drawn) [Compound I-53, (2S,3S,4R,5R)-5-[4-amino-5-(oxolan-2-yl)-7H-pyrrolo[2,3-d]pyrimidin-7-yl]-3,4-dihydroxy-N-(1-methylpiperidin-4-yl)oxolane-2-carboxamide]",100 to 1000,100 to 1000,≥ 1000,≥ 1000,,
Cn1ccc(-c2cn([C@@H]3O[C@H](C(=O)NCCCN4CCCC4)[C@@H](O)[C@H]3O)c3ncnc(N)c23)n1 [Compound I-181],10 to 100,≥ 1000,,,≥ 1000,≥ 1000
Cn1ccc(-c2cn([C@@H]3O[C@H](C(=O)N[C@H]4CCc5nc(N)sc5C4)[C@@H](O)[C@H]3O)c3ncnc(N)c23)n1 [Compound I-197],≥ 1000,100 to 1000,,,≥ 1000,≥ 1000
CN(C)c1ccnc(NC(=O)[C@H]2O[C@@H](n3cc(-c4ccn(C)n4)c4c(N)ncnc43)[C@H](O)[C@@H]2O)c1 [Compound I-166],10 to 100,100 to 1000,,,≥ 1000,≥ 1000
COc1cccc(CNC(=O)[C@H]2O[C@@H](n3cc(-c4ccn(C)n4)c4c(N)ncnc43)[C@H](O)[C@@H]2O)c1 [Compound I-40],100 to 1000,100 to 1000,,,≥ 1000,≥ 1000

# From patent US20240051985A1, “METTL3 MODULATORS” (ACCENT THERAPEUTICS, INC., priority 2020, published 2024)
